Measurements taken from patent US10137171B2, “Methods of treatment using a pentapeptide derived from the C-Terminus of Glucagon-Like Peptide 1 (GLP-1)” (The General Hospital Corporation, priority 2011, dated 2018).
Where no end group is shown, it is not given here.

Tests used:
diet-induced obese mice = assay: Intraperitoneal glucose tolerance test (ipGTT); type: in vivo, mouse; details: glucose 2 g/kg BW ip, overnight fasted, VHFD 24 weeks
Description: FIGS. 5C-D are a pair of line graphs Plasma glucose levels (FIG. 5C) and (FIG. 5D) Plasma insulin levels after an intraperitoneal glucose administration ([…] BW ip) in overnight fasted mice fed in VHFD for 24-weeks and 16-weeks of continuous infusions of vehicle or GLP-1(32-36)amide. ***p<4E-03 vehicle vs. GLP-1(32-36)amide, *p<0.01 vehicle vs. GLP-1(32-36)amide, **p<0.004 vehicle vs. GLP-1(32-36)amide, *****p<1.7E-05 vehicle vs. GLP-1(32-36)amide, ****p<6.7 E-04 vehicle vs. GLP-1(32-36)amide.
Mice were maintained in a normal light/dark cycle according to the standard protocols of the MGH Animal Care and Use Committee. Mice were tested with age matched or litter mate controls and 6 mice per group are required. […] The following morning the mice were prepared for the glucose tolerance test: animals were weighed, the tail was nicked with a fresh razor blade by a horizontal cut of the very end, ˜35 to 50 microliters of blood is massaged from the tail to an eppendorf tube which is immediately placed on ice, baseline blood glucose is measured by the glucose oxidase method using a Glucometer Elite glucometer, and 2 grams/kg body weight of 20% D-glucose is drawn up in a Beckton Dickenson D 29 gage ½″ insulin syringe (one unit of D-glucose for every gram of body weight). Animals were then transferred to individually labeled 1000 cc cardboard soup cups with the lid liners removed.
Following animal preparation, glucose was injected into the intraperitoneal cavity. At 10, 20, 30, 60, 120, and 140 minutes blood glucose is sampled from the tail of each mouse by gently massaging a small drop of blood onto the glucometer strip. Glucose injections and blood glucose sampling is timed to take approximately the same amount of time per animal (i.e. 25 animals are injected in 12 minutes and blood glucose sampling of those same 25 animals should also take about 12 minutes) so that the sample times are accurate for each animal.

[1] = tested on: insulin-resistant isolated mouse hepatocytes; assay: Glucose production assay in isolated hepatocytes; type: cell-based; details: stimulated by cAMP/dexamethasone/lactate; basal glucose production not suppressed
Source text: FIG. 8 is a bar graph showing suppression of glucose production by the pentapeptide GLP-1(32-36)amide (LVKGRamide (SEQ ID NO:1)) in insulin-resistant hepatocytes. Mice (male, C57bl/6) from 12-19 weeks of age were fasted overnight (16 hrs) and primary hepatocytes were isolated using a collagen and perfusion gradient purification. Cells were first seeded using a Dulbecco's modified Eagle's medium (DMEM) supplemented with 10% FBS, 1 g/L glucose, 2 mmol/1 sodium pyruvate, 1 micromol/L dexamethasone, and 0.1 micromol/L insulin, and later maintained in DMEM with 0.2% BSA, 1 g/L glucose, 0.1 micromol/L dexamethasone, and lnmol/L insulin. […] The readings were then normalized to total protein content determined from whole-cell lysates. […]
Primary hepatocytes (2×10^5 cells per well in twelve-well plates) were pre-treated with GLP-1(32-36)amide for 1 hour followed by the stimulation of insulin resistance by the addition of cAMP (10 microM)/dexamethasone ([…])/sodium lactate (2 mM) in glucose-free DMEM without phenol red. […] The readings were then normalized to total protein content determined from whole-cell lysates.

[2] = Plasma peptide concentrations by LC-MS after continuous infusion; type: in vivo, mouse
Description: (§1) Mice were given single i.v. injections of the propeptide, GLP-1(9-36)amide and blood samples were taken at times 2, 5, and 10 min. Plasma was assayed for the presence of GLP-1(9-36)amide, GLP-1(28-36)amide, and GLP-1(32-36)amide by electron spray mass spectrometry (ES-MS. Pooled plasma samples collected after a 28 day continuous infusion of GLP-1(9-36)amide or GLP-1(28-36)amide in mice were assayed for peptide concentrations by liquid chromatography mass spectrometry (LC-MS).

[3] = Mass spectrometry of mouse plasma after i.v. injection of GLP-1(9-36)amide; type: in vivo
Description: FIG. 7B is a line graph showing the results of experiments involving intravenous push injection of GLP-1(9-36)amide, 32-36 amide, and […] into mice, collecting blood plasma at 2, 5, and 10 min, and analyzing the peptide profiles by liquid chromatography-mass spectrometry (LC-MS). Relative amounts of peptides at times indicated are shown. Y-axis, arbitrary units
as §1

[4] = pooled mouse plasma after four weeks infusion

FIAWLVKGR-NH2 [GLP-1(28-36)amide, FIAWLVKGRamide]
glycemic response in ipGTT (diet-induced obese mice; 16 weeks infusion (FIG. 5C)): normal glycemic response
insulin response in ipGTT (diet-induced obese mice; 16 weeks infusion (FIG. 5D)): strong insulin response
glucose production (formation) [1]: dose-dependently suppressed
level at time molar at 672 h ([2]; mouse, plasma, 2.0 mg/ml in the osmopump, four weeks infusion, read-out: plasma levels of GLP-1(28-36)amide in mice infused with GLP-1(28-36)amide): ~0.24 nM
plasma levels of GLP-1(28-36)amide in mice infused with GLP-1(9-36)amide [2, 4]: ~0.1 nM

GLP-1(9-36)amide
presence of nona and pentapeptides in plasma after injection of GLP-1(9-36)amide ([3]; mouse plasma 2 min after i.v. injection, mass spectrometry): readily detected
conversion of GLP-1(9-36)amide to the nona and pentapeptides in the circulation ([3]; mouse plasma, i.v. pulse injection): rapidly converted
plasma concentration of GLP-1(9-36)amide during its continuous infusion [2, 4]: not detectable
